System: TG, non-HDL-C, LDL-C, HDL-C, apo B, hsCRP
Test: REDUCE-IT trial: fasting lipid, lipoprotein and inflammatory marker data over time
Assay type: in vivo, human
Protocol: Fasting Lipid Profile: The fasting lipid panel included: TG, TC, LDL-C, HDL-C, non-HDL-C, and VLDL-C. At all visits, LDL-C was calculated using the Friedewald equation. At Visit 1 and Visit 1.1 direct LDL-C were used if at the same visit TG>400 mg/dL (4.52 mmol/L). These LDL-C values were used for the evaluation of the LDL-C inclusion criterion (LDL-C qualifying measurements for randomization) and for the assessment of changes in the statin therapy when LDL-C was not at goal. […] In addition, irrespective of the TG levels, at Visit 2 (0 Months of Follow-up, baseline) and at Visit 4 (12 Months of Follow-up), LDL-C were measured by preparative ultracentrifugation. These preparative ultracentrifugation LDL-C measurements were used in the statistical analysis including the calculation of the percent change from baseline (1 year versus baseline). Hopkins LDL-C was calculated for each visit.
Biomarkers Assays: The biomarker assays included: hsCRP, Apo B and hsTnT.
The fasting lipid panel was tested at Screening (Visit 1 or Visit 1.1), Randomization visit (Visit 2; Day 0), Visit 3 (Day 120; ˜4 Months) and all other follow-up visits including the last visit. For change from baseline to 1 year preparative ultracentrifugation measurements for LDL-C were analyzed, unless this value was missing. If the LDL-C preparative ultracentrifugation values were missing, then another LDL-C value was used, with prioritization of values obtained from LDL-C Direct measurements, followed by LDL-C derived by the Friedewald calculation (only for subjects with TG<400 mg/dL), and finally LDL-C derived using the calculation published by Hopkins University investigators (Martin S S, Blaha M J, Elshazly M B, et al. Comparison of a novel method vs the Friedewald equation for estimating low-density lipoprotein cholesterol levels from the standard lipid profile. JAMA. 2013; 310:2061-8.). In addition, change from baseline to day 120 in LDL-C utilizing Friedewald's and Hopkins methods was analyzed, using the arithmetic mean of LDL-C obtained at Visit 2 (Day 0) and the preceding Visit 1 (or Visit 1.1). If one of these values was missing, the single available LDL-C value was used. LDL-C according to Hopkins was calculated at each visit.
The randomization visit was considered Baseline. If a baseline value was not available from the randomization visit, then the latest screening value was used. For measurements of lipids, lipoproteins and inflammatory markers, the change and the percent change were summarized at each visit. Since these biomarkers are typically not normally distributed, the Wilcoxon rank-sum test was used for treatment comparisons of the percent change from baseline, and medians and quartiles were provided for each treatment group. The medians of the differences between the treatment groups and 95% CIs were estimated with the Hodges-Lehmann method. In addition, shift-tables were generated as appropriate.

## CC/C=C\C/C=C\C/C=C\C/C=C\C/C=C\CCCC(=O)OCC [icosapent ethyl, eicosapentaenoic acid ethyl ester]
Last Visit
  Apo B Median % Change from Baseline: −2.5%
  Apo B Median Absolute Change from Baseline: -2.0 mg/dL
  Apo B Median Observed Value: 80.0 mg/dL
  HDL-C Median % Change from Baseline: 2.5%
  HDL-C Median Absolute Change from Baseline: 1.0 mg/dL
  HDL-C Median Observed Value: 41.0 mg/dL
  LDL-C Hopkins Median % Change from Baseline: −1.2%
  LDL-C Hopkins Median Absolute Change from Baseline: -1.0 mg/dL
  LDL-C Hopkins Median Observed Value: 84.0 mg/dL
  LDL-C derived Median % Change from Baseline: 3.1%
  LDL-C derived Median Absolute Change from Baseline: 2.0 mg/dL
  LDL-C derived Median Observed Value: 77.0 mg/dL
  Log hsCRP Median % Change from Baseline: −23.1%
  Log hsCRP Median Absolute Change from Baseline: −0.1 mg/L
  Log hsCRP Median Observed Value: 0.6 mg/L
  Non-HDL-C Median % Change from Baseline: −4.4%
  Non-HDL-C Median Absolute Change from Baseline: -5.0 mg/dL
  Non-HDL-C Median Observed Value: 112.0 mg/dL
  Triglycerides Median % Change from Baseline: −21.6%
  Triglycerides Median Absolute Change from Baseline: -45.0 mg/dL
  Triglycerides Median Observed Value: 170.0 mg/dL
  hsCRP Median % Change from Baseline: −12.6%
  hsCRP Median Absolute Change from Baseline: -0.2 mg/L
  hsCRP Median Observed Value: 1.8 mg/L
Last Visit, vs placebo
  Apo B Between Group Difference Median % Change from Baseline: −6.7%
  Apo B Between Group Difference Median Absolute Change from Baseline: -5.0 mg/dL
  HDL-C Between Group Difference Median % Change from Baseline: −3.0%
  HDL-C Between Group Difference Median Absolute Change from Baseline: -1.0 mg/dL
  LDL-C Hopkins Between Group Difference Median % Change from Baseline: −7.4%
  LDL-C Hopkins Between Group Difference Median Absolute Change from Baseline: -6.2 mg/dL
  LDL-C derived Between Group Difference Median % Change from Baseline: −6.6%
  LDL-C derived Between Group Difference Median Absolute Change from Baseline: -5.0 mg/dL
  Log hsCRP Between Group Difference Median % Change from Baseline: −21.2%
  Log hsCRP Between Group Difference Median Absolute Change from Baseline: −0.4 mg/L
  Non-HDL-C Between Group Difference Median % Change from Baseline: −8.6%
  Non-HDL-C Between Group Difference Median Absolute Change from Baseline: -10.0 mg/dL
  Triglycerides Between Group Difference Median % Change from Baseline: −14.1%
  Triglycerides Between Group Difference Median Absolute Change from Baseline: -32.0 mg/dL
  hsCRP Between Group Difference Median % Change from Baseline: −37.6%
  hsCRP Between Group Difference Median Absolute Change from Baseline: -0.8 mg/L
Month 4
  HDL-C Median % Change from Baseline: −2.8%
  HDL-C Median Absolute Change from Baseline: -1.0 mg/dL
  HDL-C Median Observed Value: 39.0 mg/dL
  LDL-C Hopkins Median % Change from Baseline: −2.0%
  LDL-C Hopkins Median Absolute Change from Baseline: -1.6 mg/dL
  LDL-C Hopkins Median Observed Value: 83.6 mg/dL
  Non-HDL-C Median % Change from Baseline: −4.0%
  Non-HDL-C Median Absolute Change from Baseline: -4.5 mg/dL
  Non-HDL-C Median Observed Value: 113.0 mg/dL
  Triglycerides Median % Change from Baseline: −18.6%
  Triglycerides Median Absolute Change from Baseline: -37.5 mg/dL
  Triglycerides Median Observed Value: 177.0 mg/dL
Month 4, vs placebo
  HDL-C Between Group Difference Median % Change from Baseline: −7.2%
  HDL-C Between Group Difference Median Absolute Change from Baseline: -3.0 mg/dL
  LDL-C Hopkins Between Group Difference Median % Change from Baseline: −10.3%
  LDL-C Hopkins Between Group Difference Median Absolute Change from Baseline: -8.7 mg/dL
  Non-HDL-C Between Group Difference Median % Change from Baseline: −12.2%
  Non-HDL-C Between Group Difference Median Absolute Change from Baseline: -14.3 mg/dL
  Triglycerides Between Group Difference Median % Change from Baseline: −20.1%
  Triglycerides Between Group Difference Median Absolute Change from Baseline: -45.5 mg/dL
Year 1
  HDL-C Median % Change from Baseline: −2.6%
  HDL-C Median Absolute Change from Baseline: -1.0 mg/dL
  HDL-C Median Observed Value: 39.0 mg/dL
  LDL-C Hopkins Median % Change from Baseline: −1.2%
  LDL-C Hopkins Median Absolute Change from Baseline: -1.1 mg/dL
  LDL-C Hopkins Median Observed Value: 85.3 mg/dL
  LDL-C derived Median % Change from Baseline: 3.1%
  LDL-C derived Median Absolute Change from Baseline: 2.0 mg/dL
  LDL-C derived Median Observed Value: 77.0 mg/dL
  Non-HDL-C Median % Change from Baseline: −3.6%
  Non-HDL-C Median Absolute Change from Baseline: -4.0 mg/dL
  Non-HDL-C Median Observed Value: 113.0 mg/dL
  Triglycerides Median % Change from Baseline: −18.3%
  Triglycerides Median Absolute Change from Baseline: -39.0 mg/dL
  Triglycerides Median Observed Value: 175.0 mg/dL
Year 1, vs placebo
  HDL-C Between Group Difference Median % Change from Baseline: −6.3%
  HDL-C Between Group Difference Median Absolute Change from Baseline: -2.5 mg/dL
  LDL-C Hopkins Between Group Difference Median % Change from Baseline: −11.4%
  LDL-C Hopkins Between Group Difference Median Absolute Change from Baseline: -9.6 mg/dL
  LDL-C derived Between Group Difference Median % Change from Baseline: −6.6%
  LDL-C derived Between Group Difference Median Absolute Change from Baseline: -5.0 mg/dL
  Non-HDL-C Between Group Difference Median % Change from Baseline: −13.1%
  Non-HDL-C Between Group Difference Median Absolute Change from Baseline: -15.5 mg/dL
  Triglycerides Between Group Difference Median % Change from Baseline: −19.7%
  Triglycerides Between Group Difference Median Absolute Change from Baseline: -44.5 mg/dL
Year 1 in Table 18
  Apo B Median Year 1: 80.0 mg/dL
  hsCRP Median Year 1: 1.8 mg/L
Year 1 in Table 18, vs placebo
  Apo B Median Between Group Difference at Year 1, % Change from Baseline: −9.7%
  Apo B Median Between Group Difference at Year 1, Absolute Change from Baseline: -8.0 mg/dL
  hsCRP Median Between Group Difference at Year 1, % Change from Baseline: −39.9%
  hsCRP Median Between Group Difference at Year 1, Absolute Change from Baseline: -0.9 mg/L
Year 2
  Apo B Median % Change from Baseline: −2.5%
  Apo B Median Absolute Change from Baseline: -2.0 mg/dL

— patent US20200261391A1, “METHODS OF REDUCING THE RISK OF A CARDIOVASCULAR EVENT IN A STATIN-TREATED SUBJECT BY INCREASING SERUM AND PLASMA EPA AND DPA LEVELS” (Amarin Pharmaceuticals Ireland Limited, priority 2019, published 2020)
